Data from patent US12454507B2, “Compounds having a fungicidal activity, their agronomic compositions and use thereof for the control of phytopathogenic fungi” (ISAGRO S.p.A., priority 2019, dated 2025).

Legend:
Alternaria alternata = type: cell-based; details: 20° C., 72 hours (96 or 120 when necessary)
Parastagonospora nodorum = test: Antifungal activity in vitro (growth inhibition, 96-well absorbance); type: cell-based; details: 20° C., 72 hours (96 or 120 when necessary)
Zymoseptoria tritici = test: as above; type: cell-based; details: 20° C., 72 hours (96 or 120 when necessary)
Cercospora beticola = test: as above; type: cell-based; details: 20° C., 72 hours (96 or 120 when necessary)
Bipolaris sorokiniana = test: as above; type: cell-based; details: 20° C., 72 hours (96 or 120 when necessary)
Sclerotinia sclerotiorum = test: as above; type: cell-based; details: 20° C., 72 hours (96 or 120 when necessary)
Phytophthora infestans = type: cell-based; details: for In vitro antifungal activity, 50% effective doses (EC50): Phytophthora infestans, 20° C., 72 hours (96 or 120 when necessary)
Venturia inaequalis = type: cell-based; details: for In vitro antifungal activity, 50% effective doses (EC50): Venturia inaequalis, 20° C., 72 hours (96 or 120 when necessary)
Phakopsora pachyrhizi = test: Preventive fungicidal activity (5 days) against Phakopsora pachyrhizi on soya; type: in vivo; details: for P5 Activity: soya Zora, inoculation 5 days after treatment; for control of the pathogen: dose of 125 ppm
Puccinia Recondita = test: Preventive fungicidal activity (5 days) against Puccinia recondita on wheat; type: in vivo; details: wheat Salgemma, inoculation 5 days after treatment; for P5 Activity NT: parts developed during the test (NT); for P5 Activity T: parts treated directly (T)
Description: Leaves of wheat plants of the […] variety, grown in pots in a conditioned environment at 20° C. and 70% of Relative Humidity (RH), were treated by spraying both sides of the leaves with the compound under examination dispersed in a hydroacetone solution at 20% by volume of acetone. […] After spraying, the plants were kept in a humidity-saturated environment at a temperature ranging from 18 to 24° C. for the incubation period of the fungus (1 day). At the end of this period, the plants were put in a greenhouse with a relative humidity (RH) of 70% and at a temperature of 18-24° C. for 14 days At the end of this period, the external symptoms of the pathogen appeared and it was therefore possible to proceed with the visual evaluation of the intensity of the infection, both on the parts treated directly with the products (T) and on the parts developed during the implementation of the test (NT).

Plasmopara viticola = test: Preventive activity (7 days) against Plasmopara viticola on vines; type: in vivo; details: leaf spray, inoculation 7 days after treatment, vine Merlot, reduction of diseased leaf area vs untreated (100=complete effectiveness)
Description: Leaves of vine plants, Merlot variety, grown in pots, in a conditioned environment (20±1° C., 70% R.H.) were treated by spraying both sides of the leaves with the products in question. 7 days after the treatment, the plants were inoculated with an aqueous suspension of Plasmopara viticola spores (200,000 spores/cc) by spraying both sides of the leaves with a compressed air gun. After remaining 24 hours in a humidity-saturated environment, at 21° C., the plants were transferred for the incubation period (7 days) in a conditioned environment with 70% R.H. and at 24° C. After this period of time, the external symptoms of the pathogen appeared and it was therefore possible to evaluate the intensity of the infection.

Magnaporthe oryzae = type: cell-based; details: for In vitro antifungal activity, 50% effective doses (EC50): Magnaporthe oryzae, 20° C., 72 hours (96 or 120 when necessary)
Pythium ultimum = type: cell-based; details: for In vitro antifungal activity, 50% effective doses (EC50): Pythium ultimum, 20° C., 72 hours (96 or 120 when necessary)

SMILES | In vitro antifungal activity, 50% effective doses (EC50) (Parastagonospora nodorum) [µg/mL] | In vitro antifungal activity, 50% effective doses (EC50) (Zymoseptoria tritici) [µg/mL] | In vitro antifungal activity, 50% effective doses (EC50) (Cercospora beticola) [µg/mL] | In vitro antifungal activity, 50% effective doses (EC50) (Bipolaris sorokiniana) [µg/mL] | In vitro antifungal activity, 50% effective doses (EC50) (Sclerotinia sclerotiorum) [µg/mL] | In vitro antifungal activity, 50% effective doses (EC50) (Phytophthora infestans) [µg/mL] | In vitro antifungal activity, 50% effective doses (EC50) (Venturia inaequalis) [µg/mL] | P5 Activity (Phakopsora pachyrhizi; 15 ppm) [%] | P5 Activity (Phakopsora pachyrhizi; 30 ppm) [%] | control of the pathogen (Phakopsora pachyrhizi) | P5 Activity NT (Puccinia Recondita; 125 ppm) [%] | P5 Activity T (Puccinia Recondita; 125 ppm) [%] | P5 Activity NT (Puccinia Recondita; 250 ppm) [%] | P5 Activity T (Puccinia Recondita; 250 ppm) [%] | P7Activity (Plasmopara viticola; 30 ppm) [%] | P7Activity (Plasmopara viticola; 125 ppm) [%] | In vitro antifungal activity, 50% effective doses (EC50) (Magnaporthe oryzae) [µg/mL] | also measured
C[C@H](NC(=O)c1ccccc1O)C(=O)O[C@@H](C)C(c1ccc(F)cc1)c1ccc(F)cc1 [CR2, reference compound] | 0.24 | 0.14 | 0.48 | 3.6 | 5.38 | – | – | – | – | – | – | – | – | – | – | – | – | In vitro antifungal activity, 50% effective doses (EC50) (Alternaria alternata): 7.57 µg/mL
C[C@H](NC(=O)c1cccc(NC=O)c1O)C(=O)O[C@@H](C)C(=O)OCc1ccccc1 [Compound 248] | 0.008 | 0.17 | – | – | – | 1.14 | – | – | – | – | – | – | – | – | – | – | – | –
CCCCCCCC(C)OC(=O)[C@H](C)NC(=O)c1cccc(NC=O)c1O (stereo partly drawn) [Compound 46, (2S)-2-(3-formamide-salicylamide)-propanoate of nonan-2-yl] | 0.001 | 0.02 | 1.34 | 2.68 | 0.02 | 0.04 | 0.25 | 98 | 99 | complete control | 90 | 98 | 99 | 100 | 100 | 100 | – | –
COc1ccnc(C(=O)N[C@@H](C)C(=O)O[C@@H](C)C(c2ccc(F)cc2)c2ccc(F)cc2)c1OC(C)=O [CR1, Florypicoxamid, reference compound] | – | – | – | – | – | – | – | 100 | 100 | – | 90 | 99 | 100 | 100 | 10 | 40 | – | –
CCCCCCC[C@H](C)OC(=O)[C@H](C)NC(=O)c1cccc(NC=O)c1O [Compound 249] | – | – | – | – | – | – | – | 98 | 100 | complete control | 95 | 99 | 100 | 100 | 100 | 100 | – | –
CC(C)C(=O)OCOc1c(NC=O)cccc1C(=O)N[C@@H](C)C(=O)O[C@@H](C)C(c1ccc(F)cc1)c1ccc(F)cc1 [Compound 156, (2S)-2-[3-formamide-2-(methoxy-(2-methyl)propanoate)-benzamide] of (2S)-1,1-bis(4-fluorophenyl)propan-2-yl] | – | – | – | – | – | – | – | 100 | 100 | complete control | 93 | 98 | 100 | 100 | 100 | 100 | – | –
CCCCOC(=O)[C@H](C)OC(=O)[C@H](C)NC(=O)c1cccc(NC=O)c1O [Compound 236] | 0.009 | 0.095 | 8.64 | 8.0 | 0.18 | 1.49 | 1.77 | – | – | – | – | – | – | – | – | – | 0.79 | –
CCCCC(CC)COC(=O)[C@H](C)OC(=O)[C@H](C)NC(=O)c1cccc(NC=O)c1O (stereo partly shown) [Compound 239] | 0.006 | 0.067 | – | – | 0.081 | 1.62 | – | – | – | – | – | – | – | – | – | – | 0.64 | In vitro antifungal activity, 50% effective doses (EC50) (Pythium ultimum): 2.78 µg/mL
C[C@H](NC(=O)c1cccc(NC=O)c1O)C(=O)O[C@@H](C)C(c1ccc(F)cc1)c1ccc(F)cc1 [Compound 165, (2S)-2-(3-formamide-salicylamide) propanoate of (2S)-1,1-bis(4-fluorophenyl) propan-2-yl] | 0.01 | 0.007 | 0.19 | 0.11 | 0.01 | 0.05 | 0.18 | 99 | 100 | complete control | 88 | 95 | 100 | 100 | 100 | 100 | 0.2 | in vitro antifungal activity (in words) (Venturia inaequalis; V. inaequalis): active; in vitro antifungal activity (in words) (Magnaporthe oryzae; M. oryzae): active; In vitro antifungal activity, 50% effective doses (EC50) (Alternaria alternata): 0.33 µg/mL; in vitro antifungal activity (in words) (Pythium ultimum; P. ultimum): active; In vitro antifungal activity, 50% effective doses (EC50) (Pythium ultimum): 1.54 µg/mL; in vitro antifungal activity (in words) (Phytophthora infestans; P. infestans): active
